# Patent publication US11691980B2, “Liphagal analog and multi-targeted kinase inhibitor containing liphagal or analog thereof” (TOHOKU UNIVERSITY, priority 2017, dated 2023)
# Experiments:
# Test in all cases: mobility shift assay
# Assay type in all cases: biochemical
# [1] = target: T1, MST 4 (Homo sapiens, UniProt Q9P289)
# T1 construct: purchased Carna Biosciences
# [2] = target: T2, DDR1 (Homo sapiens, UniProt Q08345)
# T2 construct: purchased Carna Biosciences
# [3] = target: T3, CaMK4 (Homo sapiens, UniProt Q16566)
# T3 construct: purchased Carna Biosciences
# [4] = tested on: MAP3K3_Cascade; settings: 10 μM
# [5] = target: T4, CaMK1α (Homo sapiens, UniProt Q14012)
# T4 construct: purchased Carna Biosciences
# [6] = target: T5, PHKG1 (Homo sapiens, UniProt Q16816)
# T5 construct: purchased Carna Biosciences
# [7] = target: T6, TSSK2 (Homo sapiens, UniProt Q96PF2)
# T6 construct: purchased Carna Biosciences
# [8] = target: T7, BRAF(V600E)_Cascade (Homo sapiens, UniProt P15056, V600E)
# T7 construct: purchased Carna Biosciences
# [9] = target: T8, KIT(D816E) (Homo sapiens, UniProt P10721, D816E)
# T8 construct: purchased Carna Biosciences
# [10] = target: T9, SLK (Homo sapiens, UniProt Q9H2G2)
# T9 construct: purchased Carna Biosciences
# [11] = target: T10, BTK (Homo sapiens, UniProt Q06187)
# T10 construct: purchased Carna Biosciences
# [12] = target: T11, RET(Y791F) (Homo sapiens, UniProt P07949, Y791F)
# T11 construct: purchased Carna Biosciences
# [13] = target: T12, SRPK2 (Homo sapiens, UniProt P78362)
# T12 construct: purchased Carna Biosciences
# [14] = target: T13, FGR (Homo sapiens, UniProt P09769)
# T13 construct: purchased Carna Biosciences
# [15] = tested on: MAP2K4 Cascade; settings: 10 μM
# [16] = target: T14, BMX (Homo sapiens, UniProt P51813)
# T14 construct: purchased Carna Biosciences
# [17] = target: T15, EGFR(L858R) (Homo sapiens, UniProt P00533, L858R)
# T15 construct: purchased Carna Biosciences
# [18] = target: T16, FYN(isoform b) (Homo sapiens, UniProt P06241)
# T16 construct: purchased Carna Biosciences
# [19] = target: T17, CK1y1 (Homo sapiens, UniProt Q9HCP0)
# T17 construct: purchased Carna Biosciences
# [20] = target: T18, PKD3 (Homo sapiens, UniProt O94806)
# T18 construct: purchased Carna Biosciences
# [21] = target: T19, FLT4 (Homo sapiens, UniProt P35916)
# T19 construct: purchased Carna Biosciences
# [22] = target: T20, RET(S891A) (Homo sapiens, UniProt P07949, S891A)
# T20 construct: purchased Carna Biosciences
# [23] = target: T21, HGK (Homo sapiens, UniProt O95819)
# T21 construct: purchased Carna Biosciences
# [24] = target: T22, TNK (Homo sapiens, UniProt Q9UKE5)
# T22 construct: purchased Carna Biosciences
# [25] = target: T23, MET(M125DT) (Homo sapiens, UniProt P08581, M1250T)
# T23 construct: purchased Carna Biosciences
# [26] = target: T24, CK2α1/β (Homo sapiens, UniProt P68400)
# T24 construct: purchased Carna Biosciences
# [27] = target: T25, MET (Homo sapiens, UniProt P08581)
# T25 construct: purchased Carna Biosciences
# [28] = target: T26, ALK(F1174L) (Homo sapiens, UniProt Q9UM73, F1174L)
# T26 construct: purchased Carna Biosciences
# [29] = target: T27, PDGFRβ (Homo sapiens, UniProt P09619)
# T27 construct: purchased Carna Biosciences
# [30] = target: T28, MARK1 (Homo sapiens, UniProt Q9P0L2)
# T28 construct: purchased Carna Biosciences
# [31] = target: T29, FGFR3(K650M) (Homo sapiens, UniProt P22607, K650M)
# T29 construct: purchased Carna Biosciences
# [32] = target: T30, p38γ (Homo sapiens, UniProt P53778)
# T30 construct: purchased Carna Biosciences
# [33] = target: T31, KKε (Homo sapiens, UniProt Q14164)
# T31 construct: purchased Carna Biosciences
# [34] = target: T32, ITK (Homo sapiens, UniProt Q08881)
# T32 construct: purchased Carna Biosciences
# [35] = target: T33, TYRO3 (Homo sapiens, UniProt Q06418)
# T33 construct: purchased Carna Biosciences
# [36] = target: T34, PKCη (Homo sapiens, UniProt P24723)
# T34 construct: purchased Carna Biosciences
# [37] = target: CDK7/CycHMAT1 (Homo sapiens, UniProt P50613); design: purchased Carna Biosciences
# [38] = target: PIK3CA/PIK3R1 (Homo sapiens, UniProt P42336); design: purchased Carna Biosciences
# Method: LG-1 (liphgal) at 10 μM was assessed for its inhibitory activity against 313 kinds of kinases by mobility shift assay or IMAP Assay™ (Carna Biosciences). Specifically, the assessment was performed by the IMAP Assay™ (Carna Biosciences) for SPRK1, PLK2, PKR, PKN1, PEK, IRAK1, and EKKα among the 313 kinds of kinases, and the assessment was performed by the mobility shift assay for all the other kinases. Inhibitory activity (% inhibition) against each kinase is represented by the size of a bubble on a protein kinase phylogenetic tree of FIG. 2.
# CDK7/CycHMAT1, sequence (P50613 whole entry): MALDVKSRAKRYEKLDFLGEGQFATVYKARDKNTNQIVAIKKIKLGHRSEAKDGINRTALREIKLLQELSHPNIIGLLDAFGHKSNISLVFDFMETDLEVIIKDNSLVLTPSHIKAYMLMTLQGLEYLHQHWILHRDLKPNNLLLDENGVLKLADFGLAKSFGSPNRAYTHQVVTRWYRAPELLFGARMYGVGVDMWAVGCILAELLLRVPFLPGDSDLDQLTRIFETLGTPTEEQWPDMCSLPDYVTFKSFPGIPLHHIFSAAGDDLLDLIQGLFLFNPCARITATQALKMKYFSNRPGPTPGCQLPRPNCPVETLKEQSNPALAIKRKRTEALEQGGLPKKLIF
# CDK7/CycHMAT1, sequence (P51946 whole entry partner): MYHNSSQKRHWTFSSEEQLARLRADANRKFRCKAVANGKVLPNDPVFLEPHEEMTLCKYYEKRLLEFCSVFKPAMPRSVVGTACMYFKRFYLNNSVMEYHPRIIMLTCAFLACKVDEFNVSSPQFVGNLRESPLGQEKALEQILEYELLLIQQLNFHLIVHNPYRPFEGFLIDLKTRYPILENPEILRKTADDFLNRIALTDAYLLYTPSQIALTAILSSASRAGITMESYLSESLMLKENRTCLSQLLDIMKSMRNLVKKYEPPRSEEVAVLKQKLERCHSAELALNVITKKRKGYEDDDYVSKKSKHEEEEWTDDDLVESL
# CDK7/CycHMAT1, sequence (P51948 whole entry partner): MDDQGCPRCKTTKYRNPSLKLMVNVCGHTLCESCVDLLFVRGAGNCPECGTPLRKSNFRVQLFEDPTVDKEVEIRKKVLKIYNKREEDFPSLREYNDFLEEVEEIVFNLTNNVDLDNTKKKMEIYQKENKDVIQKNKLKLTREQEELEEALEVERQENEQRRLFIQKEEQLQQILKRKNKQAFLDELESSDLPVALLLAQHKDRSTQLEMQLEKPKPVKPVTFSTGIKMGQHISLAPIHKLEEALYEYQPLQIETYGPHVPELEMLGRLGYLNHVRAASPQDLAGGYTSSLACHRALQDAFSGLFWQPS
# T21 sequence (O95819 whole entry): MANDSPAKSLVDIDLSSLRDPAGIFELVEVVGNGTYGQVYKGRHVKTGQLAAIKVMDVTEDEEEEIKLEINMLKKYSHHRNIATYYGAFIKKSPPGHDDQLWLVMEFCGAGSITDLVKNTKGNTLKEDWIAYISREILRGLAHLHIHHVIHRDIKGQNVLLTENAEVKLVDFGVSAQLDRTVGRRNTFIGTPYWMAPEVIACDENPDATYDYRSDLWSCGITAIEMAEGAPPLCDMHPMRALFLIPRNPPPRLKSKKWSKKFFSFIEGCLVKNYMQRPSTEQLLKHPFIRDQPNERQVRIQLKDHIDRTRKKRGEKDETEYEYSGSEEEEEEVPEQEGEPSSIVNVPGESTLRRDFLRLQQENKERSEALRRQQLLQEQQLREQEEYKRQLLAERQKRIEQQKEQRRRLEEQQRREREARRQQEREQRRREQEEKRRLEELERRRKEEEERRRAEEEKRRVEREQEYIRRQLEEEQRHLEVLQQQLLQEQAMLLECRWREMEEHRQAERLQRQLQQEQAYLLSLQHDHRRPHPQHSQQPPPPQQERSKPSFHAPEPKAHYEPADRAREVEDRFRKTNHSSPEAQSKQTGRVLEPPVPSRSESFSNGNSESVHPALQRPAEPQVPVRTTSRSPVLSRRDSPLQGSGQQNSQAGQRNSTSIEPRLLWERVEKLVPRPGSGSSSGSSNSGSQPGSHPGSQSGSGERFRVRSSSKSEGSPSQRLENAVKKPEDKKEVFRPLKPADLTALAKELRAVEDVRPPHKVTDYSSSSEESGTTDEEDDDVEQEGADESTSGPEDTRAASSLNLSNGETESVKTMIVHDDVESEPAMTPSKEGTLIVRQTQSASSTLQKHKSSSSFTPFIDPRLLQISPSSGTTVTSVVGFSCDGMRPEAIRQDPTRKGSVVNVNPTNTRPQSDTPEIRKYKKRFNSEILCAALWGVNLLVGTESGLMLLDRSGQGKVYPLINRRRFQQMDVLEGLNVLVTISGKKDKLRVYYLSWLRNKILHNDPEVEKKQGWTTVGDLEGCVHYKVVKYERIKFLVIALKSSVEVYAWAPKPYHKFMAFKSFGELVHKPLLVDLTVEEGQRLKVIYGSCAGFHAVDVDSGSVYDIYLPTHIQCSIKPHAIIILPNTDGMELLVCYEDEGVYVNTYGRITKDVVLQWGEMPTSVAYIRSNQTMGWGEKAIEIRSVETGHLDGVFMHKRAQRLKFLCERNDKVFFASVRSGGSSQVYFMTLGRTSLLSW
# T30 sequence (P53778 whole entry): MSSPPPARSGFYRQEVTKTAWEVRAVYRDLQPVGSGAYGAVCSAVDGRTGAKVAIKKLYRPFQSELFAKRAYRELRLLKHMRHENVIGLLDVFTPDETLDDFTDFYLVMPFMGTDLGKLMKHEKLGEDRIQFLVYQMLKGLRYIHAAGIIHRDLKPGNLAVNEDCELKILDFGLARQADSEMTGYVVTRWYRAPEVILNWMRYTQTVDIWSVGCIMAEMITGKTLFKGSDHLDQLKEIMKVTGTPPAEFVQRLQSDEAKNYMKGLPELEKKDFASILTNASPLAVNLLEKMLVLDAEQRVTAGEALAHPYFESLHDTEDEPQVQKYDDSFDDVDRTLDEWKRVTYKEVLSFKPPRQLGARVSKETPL
# T7 sequence (P15056 whole entry V600E): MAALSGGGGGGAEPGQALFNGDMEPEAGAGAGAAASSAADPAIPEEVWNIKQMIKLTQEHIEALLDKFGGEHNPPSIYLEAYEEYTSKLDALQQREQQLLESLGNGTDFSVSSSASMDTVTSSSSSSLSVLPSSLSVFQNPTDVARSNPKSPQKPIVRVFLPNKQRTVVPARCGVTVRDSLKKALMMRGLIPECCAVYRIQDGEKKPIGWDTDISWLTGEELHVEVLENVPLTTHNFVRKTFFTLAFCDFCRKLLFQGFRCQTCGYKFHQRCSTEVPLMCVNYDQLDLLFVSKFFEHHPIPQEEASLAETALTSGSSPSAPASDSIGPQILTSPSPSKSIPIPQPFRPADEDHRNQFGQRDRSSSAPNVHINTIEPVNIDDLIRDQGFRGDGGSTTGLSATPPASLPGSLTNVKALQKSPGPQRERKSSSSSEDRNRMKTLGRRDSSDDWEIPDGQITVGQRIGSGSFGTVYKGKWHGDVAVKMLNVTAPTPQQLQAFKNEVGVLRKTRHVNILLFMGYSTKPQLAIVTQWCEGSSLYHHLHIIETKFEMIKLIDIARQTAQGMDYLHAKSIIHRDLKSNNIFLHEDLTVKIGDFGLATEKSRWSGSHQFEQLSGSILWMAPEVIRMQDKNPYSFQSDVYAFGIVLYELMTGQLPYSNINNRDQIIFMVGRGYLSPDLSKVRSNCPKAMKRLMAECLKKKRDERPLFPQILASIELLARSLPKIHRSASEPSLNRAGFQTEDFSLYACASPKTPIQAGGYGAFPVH
# T1 sequence (Q9P289 whole entry): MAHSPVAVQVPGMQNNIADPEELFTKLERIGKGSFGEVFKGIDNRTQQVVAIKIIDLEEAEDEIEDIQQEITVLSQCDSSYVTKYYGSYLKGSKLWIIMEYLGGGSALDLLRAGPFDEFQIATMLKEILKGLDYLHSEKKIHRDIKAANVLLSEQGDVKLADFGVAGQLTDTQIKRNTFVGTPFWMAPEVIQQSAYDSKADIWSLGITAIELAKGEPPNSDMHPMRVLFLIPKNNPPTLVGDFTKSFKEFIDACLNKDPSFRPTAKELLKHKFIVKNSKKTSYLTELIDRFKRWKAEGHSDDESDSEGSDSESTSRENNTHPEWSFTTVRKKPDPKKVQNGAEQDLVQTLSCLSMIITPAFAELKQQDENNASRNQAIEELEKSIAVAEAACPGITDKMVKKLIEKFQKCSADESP
# T10 sequence (Q06187 whole entry): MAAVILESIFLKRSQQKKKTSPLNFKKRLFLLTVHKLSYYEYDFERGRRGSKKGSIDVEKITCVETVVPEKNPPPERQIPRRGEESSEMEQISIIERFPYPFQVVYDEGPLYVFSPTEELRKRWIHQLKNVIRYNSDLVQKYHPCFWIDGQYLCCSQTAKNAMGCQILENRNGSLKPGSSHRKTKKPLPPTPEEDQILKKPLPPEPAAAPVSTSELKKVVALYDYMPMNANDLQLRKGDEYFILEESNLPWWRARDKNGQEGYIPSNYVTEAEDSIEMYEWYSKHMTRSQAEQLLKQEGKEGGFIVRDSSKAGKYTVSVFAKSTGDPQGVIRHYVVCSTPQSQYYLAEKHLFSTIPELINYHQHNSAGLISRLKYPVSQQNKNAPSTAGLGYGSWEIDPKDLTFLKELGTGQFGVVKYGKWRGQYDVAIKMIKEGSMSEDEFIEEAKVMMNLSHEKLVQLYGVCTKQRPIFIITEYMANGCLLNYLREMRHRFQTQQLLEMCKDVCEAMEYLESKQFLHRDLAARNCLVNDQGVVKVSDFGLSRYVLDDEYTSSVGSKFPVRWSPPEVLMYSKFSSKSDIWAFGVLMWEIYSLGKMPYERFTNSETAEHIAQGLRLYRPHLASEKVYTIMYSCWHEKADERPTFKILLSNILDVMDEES
# T13 sequence (P09769 whole entry): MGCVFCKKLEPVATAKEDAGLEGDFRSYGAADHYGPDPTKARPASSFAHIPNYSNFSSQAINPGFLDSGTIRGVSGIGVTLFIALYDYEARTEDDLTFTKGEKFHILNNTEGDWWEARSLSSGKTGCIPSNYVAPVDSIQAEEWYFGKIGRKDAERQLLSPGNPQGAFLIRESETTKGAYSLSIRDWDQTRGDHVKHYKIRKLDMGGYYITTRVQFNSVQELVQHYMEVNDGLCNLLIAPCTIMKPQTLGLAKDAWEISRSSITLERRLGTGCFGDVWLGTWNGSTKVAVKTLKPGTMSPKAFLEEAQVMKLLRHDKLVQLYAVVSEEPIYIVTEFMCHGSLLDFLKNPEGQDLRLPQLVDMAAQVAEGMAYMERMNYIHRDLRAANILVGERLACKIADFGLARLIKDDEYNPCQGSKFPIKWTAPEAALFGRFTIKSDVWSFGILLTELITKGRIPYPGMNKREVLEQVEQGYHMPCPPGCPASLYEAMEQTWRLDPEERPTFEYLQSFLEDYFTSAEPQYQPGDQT
structure (smiles),measurement,setting,value
"C[C@@H]1CC[C@H]2C(C)(C)CCC[C@]2(C)c2c1oc1c(C=O)c(O)c(O)cc21 [LG-1, liphagal]",inhibition at 10 µM,[1],80.3%
same,inhibition at 10 µM,[2],60.5%
same,inhibition at 10 µM,[3],51.4%
same,% Inhibition,[4],48.8%
same,inhibition at 10 µM,[5],25.7%
same,inhibition at 10 µM,[6],21.7%
same,inhibition at 10 µM,[7],21%
same,inhibition at 10 µM,[8],19.5%
same,inhibition at 10 µM,[9],19.4%
same,inhibition at 10 µM,[10],10.5%
same,inhibition at 10 µM,[11],10.3%
same,inhibition at 10 µM,[12],9.9%
same,inhibition at 10 µM,[13],9.7%
same,inhibition at 10 µM,[14],9.3%
same,% Inhibition,[15],9.1%
same,inhibition at 10 µM,[16],6.5%
same,inhibition at 10 µM,[17],4.2%
same,inhibition at 10 µM,[18],3.1%
same,inhibition at 10 µM,[19],2.8%
same,inhibition at 10 µM,[20],2.7%
same,inhibition at 10 µM,[21],2.1%
same,inhibition at 10 µM,[22],2.1%
same,inhibition at 10 µM,[23],1.2%
same,inhibition at 10 µM,[24],0.1%
same,inhibition at 10 µM,[25],-0.2%
same,inhibition at 10 µM,[26],-0.9%
same,inhibition at 10 µM,[27],-1.3%
same,inhibition at 10 µM,[28],-1.8%
same,inhibition at 10 µM,[29],-3.4%
same,inhibition at 10 µM,[30],-3.5%
same,inhibition at 10 µM,[31],-3.6%
same,inhibition at 10 µM,[32],-5.6%
same,inhibition at 10 µM,[33],-6.3%
same,inhibition at 10 µM,[34],-6.5%
same,inhibition at 10 µM,[35],-6.6%
same,inhibition at 10 µM,[36],-34.3%
same,inhibition at 10 µM,[37]; CDK7/CycHMAT1,85.8%
same,inhibitory activity against CDK7,"[37]; in words, 10 μM",Potent inhibitory activity
same,inhibition at 10 µM,[38],83.4%
